What was measured:
hEno1 = target: T1, hEno1 (Homo sapiens, UniProt P06733); assay: Enolase activity analysis (absorbance at 240 nm of PEP); type: biochemical
T1 construct: 6xHis; made in house; host or cells: E. coli BL21(DE3), inferred from 'same procedure' as CaEno1
Method: Enolase activity was determined by direct spectrophotometric assay via measuring the increase of absorbance at 240 nm of phosphoenolpyruvate (PEP) as described previously with some modifications ([54]). Briefly, the reaction buffer (pH 7.0) containing 10 mM imidazole, 200 mM KCl, and 0.5 mM MgAc in a final reaction volume of 100 μL was mixed with Eno1 (a final concentration of 30 nM), followed by the mixture of 2-phosphoglycerate (2-PG) (Yuanye Biotech Shanghai) with a final concentration of 1 mM. The enolase activity of Eno1 was evaluated by measuring the increase of absorbance (OD240) at room temperature for 10 min. […] The well-known enolase inhibitor sodium fluoride (NaF; Sangon Biotech) was initiated from 5 mM and used as a control ([29]). Inhibition curves were fitted by nonlinear regression (four parameters) using the GraphPad Prism software.

C. albicans SN152 = assay: Galleria mellonella infection model, SN152 strain; type: in vivo, Candida albicans; settings: G. mellonella, 10 mg/kg
Method: To assess whether Eno1 is a therapeutic target of BE, we constructed a homozygous deletion strain for the ENO1 gene (eno1/eno1). We then investigated the difference in the antifungal efficacy of BE on the infections caused by the parent strain SN152 and the eno1/eno1 strain in the Galleria mellonella infection model. We divided the G. mellonella into 5 groups, with 10 larvae in each group. All 10 larvae died after a 24-h infection with the SN152 strain, while only 3 larvae died after 24 h when infected with the eno1/eno1 strain; the remaining larvae died within 7 days. Compared with the group infected with the parent strain, the survival time of the group infected with the eno1/eno1 strain was longer (P < 0.01) (Fig. 4A). […]
FIG 4 Eno1 acts as a therapeutic target of BE. […] Each curve represents a group of 10 larvae (n =10) monitored daily for survival for up to 10 days after infection. […]
Virulence testing of C. albicans was done in Galleria mellonella as described previously ([56]). […] After growth in YPD media overnight at 30°C and 200 rpm, C. albicans SN152 cells or eno1/eno1 mutant cells were washed with PBS 3 times and diluted to the desired concentration (1 × 10^7 cells/mL) determined by counting with a hemacytometer. […] The death of G. mellonella was assessed daily and analyzed statistically by the Kaplan-Meier method (log-rank test).

Candida albicans 103 = assay: Checkerboard microdilution assay with fluconazole; type: cell-based
Excerpt: Ta b l e S3. Interaction of fluconazole ( FLC) and BE probes against isolates of Candida albicans
Compounds Molecular structure Individual action Interaction MIC(μg/ mL ) FICI Mode of
MIC (μg /mL) FLC Compounds interaction

T1 sequence (P06733 whole entry): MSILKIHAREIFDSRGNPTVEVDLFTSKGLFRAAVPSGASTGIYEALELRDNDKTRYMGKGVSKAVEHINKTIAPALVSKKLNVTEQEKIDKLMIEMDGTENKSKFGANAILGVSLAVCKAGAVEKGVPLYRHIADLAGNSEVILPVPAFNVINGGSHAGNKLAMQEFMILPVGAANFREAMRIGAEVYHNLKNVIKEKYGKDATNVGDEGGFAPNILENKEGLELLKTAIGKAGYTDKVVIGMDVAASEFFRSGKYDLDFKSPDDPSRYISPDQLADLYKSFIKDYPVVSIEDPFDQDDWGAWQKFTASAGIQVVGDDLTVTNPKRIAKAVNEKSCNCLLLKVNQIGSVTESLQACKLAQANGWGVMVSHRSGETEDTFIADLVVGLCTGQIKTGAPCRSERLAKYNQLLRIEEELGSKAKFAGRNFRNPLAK

O=c1cc(-c2ccccc2)oc2cc(O)c(O)c(O)c12 [BE, Baicalein]
IC50 (hEno1): 91.3 ± 3.1 µM
survival rate of larvae extended versus infected group without drug treatment (C. albicans SN152): 30%
Interaction MIC FLC (Candida albicans 103; MIC of FLC in combination with the compound): 1 µg/mL
Interaction MIC Compounds (Candida albicans 103; MIC of the compound in combination with FLC): 1 µg/mL
FICI (Candida albicans 103; combination with FLC): 0.039
Mode of interaction (Candida albicans 103; combination with FLC, FLC-resistant C. albicans): Synergism
Individual action MIC (Candida albicans 103; compound alone): 32 µg/mL
